Read-outs that look alike come from different tables or passages of the source.
Target: T1, P2X3 (Homo sapiens, UniProt P56373)
T1 construct: expressed in transfected cells; host or cells: HEK293
T1 sequence (P56373 1-397): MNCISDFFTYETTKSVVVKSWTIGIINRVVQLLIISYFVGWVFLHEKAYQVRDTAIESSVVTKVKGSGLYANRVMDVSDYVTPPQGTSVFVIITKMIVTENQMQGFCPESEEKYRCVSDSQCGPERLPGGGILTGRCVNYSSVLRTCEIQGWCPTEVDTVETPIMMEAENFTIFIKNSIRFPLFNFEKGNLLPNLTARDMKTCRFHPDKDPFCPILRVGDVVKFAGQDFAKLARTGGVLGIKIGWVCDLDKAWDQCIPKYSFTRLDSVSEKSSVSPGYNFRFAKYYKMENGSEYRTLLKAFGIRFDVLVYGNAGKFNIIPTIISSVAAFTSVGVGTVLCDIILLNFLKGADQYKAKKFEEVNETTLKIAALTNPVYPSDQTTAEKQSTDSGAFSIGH
Assay: P2X3 Antagonist Assay (FLIPR calcium, Fluo-8, HEK293 cells transfected with human ion channel cDNAs, αβ-meATP stimulation)
Type: cell-based
Details: antagonist mode, αβ-meATP 3 μM; for inhibition at 1 µM: read-out: P2X3 IC50 column, given as % @ 1 μM
Description: Example 59: P2X3 Antagonist Assay
HEK293 were transiently or stably transfected with human ion channel cDNAs as indicated in section 1. Stable transfectants were selected by coexpression with the antibiotic-resistance gene(s) incorporated into the expression plasmid(s). Selection pressure was maintained by including selection antibiotics in the culture medium. HEK293 cells were cultured in Dulbecco's Modified Eagle Medium/Nutrient Mixture F-12 (D-MEM/F-12) supplemented with 10% fetal bovine serum, 100 U/mL penicillin G sodium, 100 J·Lg/mL streptomycin sulfate and appropriate selection antibiotics.
The effect of each test article to act as an antagonist was evaluated. Each test article was evaluated at eight (8) concentrations (0.001, 0.003, 0.01, 0.03, 0.1, 0.3, 1 and 3 μM, n=3) with 4 replicates for each concentration. Experiments were performed with the FLIPR calcium sensitive dye kit (Fluo-8 dye, AAT, Bioquest) according to the manufacturer's instructions. • Dye-loading: Growth media will be removed and add 20 μL of Mg^++-free HBPS containing Fluo-8 for 30 min at 37° C. • Preincubation (FLIPR step 1): Adding 5× (5 μL) test, vehicle, or control article solutions in Mg^+-free HBPS to each well for 20 minutes at room temperature, protected from light. • Stimulation (FLIPR step 2): After pre-incubation, cells will be stimulated with 6× (5 μL) αβ-meATP at final concentration of 3 μM prepared in Mg^++-free HBPS. • Non-Specific Calcium Influx (FLIPR step 3): 5 minutes after stimulation solution addition, non-specific calcium influx will be activated by adding 7×(5 μL) ionomycin at a final concentration of 5 μM. Fluorescence will be recorded continuously during FLIPR steps 2 and 3. • Positive Control Antagonist: PPADS (1 mM).
Data acquisition was performed via the FLIPRControl software that is supplied with the FLIPR System (MDS-AT) and data was analyzed using Microsoft Excel2003 (Microsoft Corp., Redmond, WA).

Compound	IC50	also measured
CCN(C)C(=O)c1ccc(-c2nc3cc(Cl)ccn3c2C[C@H]2CN(C(=O)OC)CCO2)c(F)c1 [Compound A66, methyl (S)-2-((7-chloro-2-(4-(ethyl(methyl)carbamoyl)-2-fluoro-phenyl)imidazo[1,2-a]pyridin-3-yl)methyl)morpholine-4-carboxylate]	< 100 nM	–
CNC(=O)c1cc(F)c(-c2nc3cc(C)ccn3c2CC2CCCN(C(=O)OC)CC2)c(F)c1 (single isomer, unassigned) [A18 (Peak 2), methyl 4-((2-(2,6-difluoro-4-(methylcarbamoyl)phenyl)-7-methylimidazo[1,2-a]pyridin-3-yl)methyl)azepane-1-carboxylate]	100 to 1000 nM	–
CNC(=O)c1cc(F)c(-c2cc3cc(C)ccc3n2C[C@H]2CN(C(=O)OC)CCO2)c(F)c1 [Compound A23, methyl (S)-2-((2-(2,6-difluoro-4-(methylcarbamoyl)phenyl)-5-methyl-1H-indol-1-yl)methyl)morpholine-4-carboxylate]	100 to 1000 nM	–
CNC(=O)c1cc(F)c(-c2nc3cc(C(F)(F)F)ccn3c2C[C@H]2CN(C(=O)OC)CCO2)c(F)c1 [Compound A5, methyl (S)-2-((2-(2,6-difluoro-4-(methylcarbamoyl)phenyl)-7-(trifluoromethyl)imidazo[1,2-a]pyridin-3-yl)methyl)morpholine-4-carboxylate]	100 to 1000 nM	–
CCc1ccn2c(C[C@H]3CN(C(=O)OC)CCO3)c(-c3ccc(C(=O)NC)cc3F)nc2c1 [Compound A45, methyl (S)-2-((7-ethyl-2-(2-fluoro-4-(methylcarbamoyl)phenyl)imidazo[1,2-a]pyridin-3-yl)methyl)morpholine-4-carboxylate]	< 100 nM	–
COC(=O)N1CCO[C@@H](Cc2c(-c3ccc(C(=O)N4CC[C@H](O)C4)cc3F)nc3cc(Cl)ccn23)C1 [Compound A68, methyl (S)-2-((7-chloro-2-(2-fluoro-4-((S)-3-hydroxypyrrolidine-1-carbonyl)phenyl)imidazo[1,2-a]pyridin-3-yl)methyl)morpholine-4-carboxylate]	100 to 1000 nM	–
CNC(=O)c1cc(C)c(-c2nc3cc(C(F)F)ccn3c2C[C@H]2CN(C(=O)OC)CCO2)cc1F [Compound A44, methyl (S)-2-((7-(difluoromethyl)-2-(5-fluoro-2-methyl-4-(meth-ylcarbamoyl)phenyl)imidazo[1,2-a]pyridin-3-yl)methyl)morpholine-4-carboxylate]	< 100 nM	–
CCC(=O)N1CCO[C@@H](Cc2c(-c3ccc(C(=O)NC)cc3F)nc3cc(Cl)ccn23)C1 [Compound A89, (S)-4-(7-chloro-3-((4-propionylmorpholin-2-yl)methyl)imidazo-[1,2-a]pyridin-2-yl)-3-fluoro-N-methylbenzamide]	100 to 1000 nM	–
CNC(=O)c1ccc(-c2nc3cc(C(F)F)ccn3c2C[C@H]2CN(C(=O)OC)CCO2)c(C)c1 [Compound A43, methyl (S)-2-((7-(difluoromethyl)-2-(2-methyl-4-(methylcarbamoyl)phenyl)imidazo[1,2-a]pyridin-3-yl)methyl)morpholine-4-carboxylate]	< 100 nM	–
CNC(=O)c1ccc(-c2nc3cc([S+](C)[O-])ccn3c2C[C@H]2CN(C(=O)OC)CCO2)c(F)c1 (single isomer, unassigned) [A47 (Peak 1)]	–	inhibition at 1 µM (@ 1 μM): 5%
CNC(=O)c1cc(F)c(-c2nc3cc(C)ccn3c2CC2CCCC(NC(C)=O)C2)c(F)c1 (single isomer, unassigned) [trans-A22 (Peak 1), 4-(3-((3-acetamidocyclohexyl)methyl)-7-methylimidazo[1,2-a]pyridin-2-yl)-3,5-difluoro-N-methylbenzamide]	–	inhibition at 1 µM (HEK293, @ 1 μM): 22%
CNC(=O)c1cc(F)c(-c2nc3n(c2C[C@H]2CN(C(=O)OC)CCO2)CCC(C)C3)c(F)c1 (stereo partly drawn) [Compound A34, methyl (2S)-2-((2-(2,6-difluoro-4-(methylcarbamoyl)phenyl)-7-methyl-5,6,7,8-tetrahydroimidazo[1,2-a]pyridin-3-yl)methyl)morpholine-4-carboxylate]	100 to 1000 nM	–
CNC(=O)c1cc(F)c(-c2nc3cc(C)ccn3c2C[C@H]2CN(C(=O)OC)CCO2)c(OC)c1F [Compound A30, methyl (S)-2-((2-(3,6-difluoro-2-methoxy-4-(methylcarbamoyl)-phenyl)-7-methylimidazo[1,2-a]pyridin-3-yl)methyl)morpholine-4-carboxylate]	< 100 nM	–
CNC(=O)c1cc(F)c(-c2nc3cc(C)ccn3c2CC2CCC(NC(C)=O)CC2)c(F)c1 (stereo not drawn) [cis-A21, 4-(3-((4-acetamidocyclohexyl)methyl)-7-methylimidazo[1,2-a]pyridin-2-yl)-3,5-difluoro-N-methylbenzamide]	–	inhibition at 1 µM (HEK293, @ 1 μM): 20%
CNC(=O)c1cc(F)c(-c2nc3cc(C)ccn3c2CC2CCCN(C(=O)OC)CC2)c(F)c1 (single isomer, unassigned) [A18 (Peak 1), methyl 4-((2-(2,6-difluoro-4-(methylcarbamoyl)phenyl)-7-methylimidazo[1,2-a]pyridin-3-yl)methyl)azepane-1-carboxylate]	< 100 nM	–
CNC(=O)c1cc(F)c(-c2[nH]c3cccc(C)c3c2C[C@H]2CN(C(=O)OC)CCO2)c(F)c1 [Compound A31, methyl (S)-2-((2-(2,6-difluoro-4-(methylcarbamoyl)phenyl)-4-methyl-1H-indol-3-yl)methyl)morpholine-4-carboxylate]	> 1000 nM	–
CNC(=O)c1ccc(-c2nc3cc(Cl)ccn3c2C[C@H]2CN(C(=O)OC)CCO2)c(C)c1 [Compound A7, methyl (S)-2-((7-chloro-2-(2-methyl-4-(methylcarbamoyl)phenyl)-imidazo[1,2-a]pyridin-3-yl)methyl)morpholine-4-carboxylate]	< 100 nM	–
CNC(=O)c1ccc(-c2nc3cc(Cl)ccn3c2C[C@H]2CN(C(=O)OC)CCO2)c(F)c1 [Compound A11, methyl (S)-2-((2-(2-fluoro-4-(methylcarbamoyl)phenyl)-7-chloroimidazo[1,2-a]pyridin-3-yl)methyl)morpholine-4-carboxylate]	< 100 nM	–
COC(=O)N1CCO[C@@H](Cc2c(-c3ccc(C(=O)N4CCCC4)cc3F)nc3cc(Cl)ccn23)C1 [Compound A67, methyl (S)-2-((7-chloro-2-(2-fluoro-4-(pyrrolidine-1-carbonyl)-phenyl)imidazo[1,2-a]pyridin-3-yl)methyl)morpholine-4-carboxylate]	100 to 1000 nM	–
COC(=O)N1CCO[C@@H](Cc2c(-c3ccc(S(C)(=O)=O)cc3F)nc3cc(C)ccn23)C1 [Compound A61, methyl (S)-2-((2-(2-fluoro-4-(methylsulfonyl)phenyl)-7-methylimidazo[1,2-a]pyridin-3-yl)methyl)morpholine-4-carboxylate]	100 to 1000 nM	–
CNC(=O)c1ccc(-c2nc3cc(C(F)F)ccn3c2C[C@H]2CN(C(=O)OC)CCO2)c(Cl)c1 [Compound A32, methyl (S)-2-((2-(2-chloro-4-(methylcarbamoyl)phenyl)-7-(di-fluoromethyl)imidazo[1,2-a]pyridin-3-yl)methyl)morpholine-4-carboxylate]	< 100 nM	–
CNC(=O)c1ccc(-c2nc3cc(C)ccn3c2C[C@H]2CN(C(=O)OC)CCO2)c(Cl)c1 [Compound A8, methyl (S)-2-((2-(2-chloro-4-(methylcarbamoyl)phenyl)-7-methyl-imidazo[1,2-a]pyridin-3-yl)methyl)morpholine-4-carboxylate]	< 100 nM	–
COC(=O)N1CCO[C@@H](Cc2c(-c3ccc(C(=O)N4CC[C@@H](O)C4)cc3F)nc3cc(Cl)ccn23)C1 [Compound A69, methyl (S)-2-((7-chloro-2-(2-fluoro-4-((R)-3-hydroxypyrrolidine-1-carbonyl)phenyl)imidazo[1,2-a]pyridin-3-yl)methyl)morpholine-4-carboxylate]	> 1000 nM	–
CNC(=O)c1cc(F)c(-c2c(C[C@H]3CN(C(=O)OC)CCO3)nc3nc(C)ccn23)c(F)c1 [Compound A33, methyl (S)-2-((3-(2,6-difluoro-4-(methylcarbamoyl)phenyl)-7-methylimidazo[1,2-a]pyrimidin-2-yl)methyl)morpholine-4-carboxylate]	–	inhibition at 1 µM (HEK293, @ 1 μM): 5%

Reference: patent publication US12655145B2, “P2X3 modulators” (GlaxoSmithKline Intellectual Property (No. 3) Limited, priority 2020, dated 2026)
